Laboratory results: patent publication US4837223A, “(S)-alpha-ethyl-2-oxo-1-pyrrolidineacetamide compositions” (UCB Societe Anonyme, priority 1984, dated 1989)

Assays:
male mouse and male rat = assay: Toxicity, conclusion from LD50 in mouse and rat; format: in vivo; conditions: for toxicity: intravenous, mouse and rat
Excerpt: (§1) Table III below gives, for compounds A and B, the LD50, in mg/kg, determined on the male mouse and the male rat after intravenous administration: […]

[1] = Toxicity, LD50 after intravenous administration, mouse; conditions: in vivo, male mouse
Excerpt: as §1

[2] = Toxicity, LD50 after intravenous administration, rat; conditions: in vivo, male rat
Excerpt: as §1

[3] = Pharmazie, 37/11, (1982), 753-765; cited from earlier work
[4] = Protection against cerebral ischemia (rats), survival after ligature of the 2 common carotids; format: in vivo, rat (male Wistar); conditions: for lowest active dose (protects against lethality induced by simultaneous ligature of the two carotids, from this dose upwards): intraperitoneal; for Number of surviving animals, treated: survivors/treated, 24 hours
Description: II. Protection against cerebral ischemia (rats)
a. Principle (C. GIURGEA and F. MOURAVIEFF-LESUISSE; see above under Ia.
Electroencephalographic controls have shown that the ligature of the 2 common carotids in the rat causes a true cerebral ischemia: the electroencephalogram trace flattens and even becomes isoelectric (electric silence).
Male Wistar rats weighing between 250 and 350 g are anesthetized with pentobarbital administered intraperitoneally at a dose of 50 mg/kg (0.5 ml/100 g).
Immediately after the anesthesia, the animals are administered intraperitoneally with an amount of 0.5 ml/100 g, either the compound to be tested dissolved in an isotonic sodium chloride solution (treated animals), or only an isotonic sodium chloride solution or placebo (control animals). About 20 minutes later, the 2 common carotids are exposed and about 10 minutes later ligatured simultaneously. This operation is effected simultaneously on the control animals and the treated animals.
An hour after administration of the compound to be tested or of the placebo, there is again administered intraperitoneally the same dose of either the compound to be tested (to the treated animals) or the placebo (to the control animals).
5 hours after the first administration, there is administered for the third time the same dose of either the compound to be tested (to the surviving treated animals) or the placebo (to the surviving control animals). 24 hours after the first administration the efficacy of the ligature is verified in all animals, under pentobarbital anesthesia, by section of the carotids downstream of the ligature. The number of surviving animals is recorded among both the treated animals and the control animals. For each dose of compound tested, the number of surviving animals among those treated with the compound is compared with the number of surviving animals among the control animals. The difference expresses the protective activity of the compound against the lethality induced by the simultaneous ligature of the 2 carotids. The statistical significance (P) of this difference is evaluated by the Brandt-Snedecor test.

[5] = Protection against hypoxia (mouse), survival in atmosphere of progressively decreasing oxygen; format: in vivo, mouse (male, NMRI strain); conditions: for minimal effective dose: Mus musculus, po, read-out: 1st effective dose (increases survival of animals deprived of oxygen, from this dose upwards); for Number of surviving animals, treated: survivors/treated
Excerpt: I. Protection against hypoxia (mouse)
a. Principle (C. GIURGEA and F. MOURAVIEFF-LESUISSE; Proc. Xth Intern. Congr. of the Coll. Intern. Neuro-psych.-Pergamon Press, Oxford and New York, 1978, p. 1623-1631).
Due to the particular sensitivity of the nervous system to this type of aggression, the results obtained in this test can be interpreted as a measure of the resistance of the central nervous system. Compounds which increase the resistance of the animals to this stress are suitable for the treatment and prevention of hypoxic type aggressions of the central nervous system.
The apparatus consists of an airtight transparent cage 37 cm high, 39 cm deep and 97 cm wide. This 140 liter cage is provided with 60 transparent compartments each 6×10×10 cm, making it possible to separately accomodate 60 mice.
A fan ensures circulation of the atmosphere between the compartments through a grid floor. The cage is equipped with a device for introducing nitrogen at a constant flow rate, and with an orifice communicating with the ambient atmosphere. Male mice (NMRI strain) weighing 20 to 22 g, are kept fasting as from the day before the test. The experiment is effected on the following day, simultaneously on 3 groups of 20 mice; a control group is given water (25 ml/kg) orally, and the other two groups are each given orally a compound to be tested.
25 minutes after the administration, the animals are distributed at random amongst the compartments so that none of the three groups is concentrated in a preferred area of the cage.
30 minutes after administration, the cage is closed and nitrogen is admitted into it at a constant flow rate (7.75 liters of technical grade nitrogen per minute) for about 37 minutes, at which stage the atmosphere contains 3.7% oxygen.
The cage is left closed until the critical moment where no more than 3 survivors are observed among the 20 control animals. At that moment, the cage is opened and atmospheric air admitted into it. A few moments later the survivors in each group of animals are counted.
For each dose of compound to be tested, the experiments are repeated once or twice, and the results pooled to obtain a minimum of 40 (or 60) animals treated per dose and 40 (or 60) corresponding control animals.
For each dose of compound tested, the number of surviving animals among those treated with the compound is compared with the number of surviving animals among the control animals. The difference between these numbers expresses the protective activity of the compound against hypoxia caused by oxygen deprivation. The statistical significance (P) of this difference is evaluated by the Fischer-Yates test.

[6] = intraperitoneal dose 0.32 mmol/kg

| SMILES | toxicity (male mouse and male rat) | LD50 [1] | LD50 [2] | protective activity against aggressions of the central nervous system caused by hypoxias, cerebral ischemia, etc. [3] | lowest active dose (protects against lethality induced by simultaneous ligature of the two carotids, from this dose upwards) [4] | Number of surviving animals, treated [4, 6] | Number of surviving animals, treated ([4]; intraperitoneal dose 0.64 mmol/kg) | minimal effective dose [5] | Number of surviving animals, treated ([5]; oral dose 0.032 mmol/kg) | Number of surviving animals, treated ([5]; oral dose 0.1 mmol/kg) | Number of surviving animals, treated ([5]; oral dose 0.16 mmol/kg) | Number of surviving animals, treated ([5]; oral dose 0.32 mmol/kg) | toxic dose compared with active dose (male mouse and male rat; in vivo) | Number of surviving animals, treated ([4]; intraperitoneal dose 0.1 mmol/kg) | Number of surviving animals, treated ([4]; intraperitoneal dose 0.16 mmol/kg) | protective activity against ischemia relative to the racemate ([4]; vs racemate (compound A)) | Number of surviving animals, treated ([5]; oral dose 0.016 mmol/kg) | protective activity against hypoxia relative to the racemate ([5]; vs racemate (compound A)) |
| --- | --- | --- | --- | --- | --- | --- | --- | --- | --- | --- | --- | --- | --- | --- | --- | --- | --- | --- |
| CCC(C(N)=O)N1CCCC1=O (racemic) [A, Racemic alpha-ethyl-2-oxo-1-pyrrolidineacetamide, reference compound] | very low toxicity | 1790 mg/kg | 1500 mg/kg | possesses a protective activity | 0.64 mmol/kg | 8/29 | 21/30 | 320 µmol/kg | 16/60 | 7/60 | 12/60 | 30/60 |  |  |  |  |  |  |
| CC[C@@H](C(N)=O)N1CCCC1=O [B, (S)-alpha-ethyl-2-oxo-1-pyrrolidineacetamide] | very low toxicity | 1080 mg/kg | 1040 mg/kg |  | 0.16 mmol/kg | 19/29 |  | 32 µmol/kg | 17/40 | 19/40 | 19/40 | 17/40 | toxic dose is well above the active dose | 14/29 | 14/30 | 4 times | 11/40 | 10 times |
